The values below come from US12180207B2 (ARRAY BIOPHARMA INC., priority 2018, dated 2024).

Test [1] addresses dephosphorylated FGFR1 (SEQ ID NO: 1, amino acids 458 to 765) (Homo sapiens (Human), UniProt P11362). Nature of the test: FGFR enzyme binding assay (HTRF tracer displacement), FGFR1. The note with it: 5 nM dephosphorylated FGFR1, average of multiple determinations if made. Summed up: (§1)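 Compounds were tested for displacement of a tracer from human FGFR kinase in a time-resolved FRET binding format. After 60 minutes at 22° C, signal was read at two wavelengths and converted to percent of control, normalised between untreated wells and 1 μM reference inhibitor.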

The target of test [2] is phosphorylated FGFR3 (SEQ ID NO: 5, amino acids 449 to 759) (Homo sapiens (Human), UniProt P22607). Nature of the test: FGFR enzyme binding assay (HTRF tracer displacement), FGFR3. The note with it: 5 nM phosphorylated FGFR3, average of multiple determinations if made. The procedure, abridged: as §1
Chain of phosphorylated FGFR3 (SEQ ID NO: 5, amino acids 449 to 759) (P22607 449-759): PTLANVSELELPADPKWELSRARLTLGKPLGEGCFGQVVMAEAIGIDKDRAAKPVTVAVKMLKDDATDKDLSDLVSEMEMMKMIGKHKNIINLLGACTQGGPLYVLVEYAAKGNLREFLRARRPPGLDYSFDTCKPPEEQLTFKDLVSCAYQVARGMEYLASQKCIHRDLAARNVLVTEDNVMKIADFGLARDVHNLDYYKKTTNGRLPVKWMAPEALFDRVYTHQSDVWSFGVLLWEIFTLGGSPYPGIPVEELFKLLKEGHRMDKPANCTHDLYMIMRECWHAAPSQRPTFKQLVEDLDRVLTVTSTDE
A general note: In TR-FRET formats the signal depends on donor and acceptor labels being close together.

Test [3] concerns the target recombinant human FGFR2 cytoplasmic domain (amino acids 403-822) (Homo sapiens (Human), UniProt P21802). Nature of the test: FGFR2 enzyme activity assay (LanthaScreen TR-FRET). It is filed as biochemical. The settings on record: 15 μM ATP, 20 min incubation at 22° C., average of multiple determinations if made, read-out: FGFR2 Enz FRET IC50. The procedure, abridged:
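His-tagged FGFR2 cytoplasmic domain ([…]) with 100 nM Alexa Fluor 647-poly-GT peptide and 15 μM ATP in HEPES/MgCl2/Triton buffer, pH 7.5, 2% DMSO, 20 min at 22 °C. EDTA-quenched, Eu-PY20 antibody added, TR-FRET read after 60 min.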

Test [4] concerns the target FGFR1 (SEQ ID NO: 1, amino acids 458-765) (Homo sapiens (Human), UniProt P11362). Nature of the test: LC/MS FGFR1 kobs assay (covalent protein modification). It is filed as binding. The settings on record: 500 nM FGFR1, 3 μM compound. Summed up: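 Covalent labeling of FGFR1 kinase domain (aa 458-765) tracked over time by intact-protein LC/MS after formic acid quench. kobs derived by fitting DMSO-normalized percent unmodified FGFR1 to an exponential decay model.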

Test [5] concerns the target FGFR3 (SEQ ID NO: 5, amino acids 449-759) (Homo sapiens (Human), UniProt P22607). Nature of the test: LC/MS FGFR3 kobs assay (covalent protein modification). It is filed as binding. The note with it: 500 nM FGFR3, 3 μM compound. Summed up:
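The observed rate constant kobs comes from an exponential decay fit of percent unmodified kinase over time. Covalent modification was quantified by Q-TOF LC/MS of formic acid-quenched samples, normalized against DMSO controls.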

In test [6] the target is HEK-293 cells transfected with dox-inducible human wild type FGFR1 (Homo sapiens (Human), UniProt P11362). Nature of the test: FGFR1 pERK cell assay. The format is cell-based. The note with it: HEK-293 dox-inducible FGFR1, 1 hour compound, 100 ng/ml FGF-acidic; maximum concentration 5 μM. The procedure, abridged: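 In HEK-293 cells with dox-induced human wild-type FGFR1, compounds (1:3 dilutions, top 5 μM final) were applied 1 h at 37°C before 5 min stimulation with 100 ng/ml FGF-acidic. Phospho-ERK1/2 measured by MSD sandwich immunoassay; IC50 from 4-parameter fit of POC versus vehicle and control compound.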
Chain of HEK-293 cells transfected with dox-inducible human wild type FGFR1 (P11362 22-822): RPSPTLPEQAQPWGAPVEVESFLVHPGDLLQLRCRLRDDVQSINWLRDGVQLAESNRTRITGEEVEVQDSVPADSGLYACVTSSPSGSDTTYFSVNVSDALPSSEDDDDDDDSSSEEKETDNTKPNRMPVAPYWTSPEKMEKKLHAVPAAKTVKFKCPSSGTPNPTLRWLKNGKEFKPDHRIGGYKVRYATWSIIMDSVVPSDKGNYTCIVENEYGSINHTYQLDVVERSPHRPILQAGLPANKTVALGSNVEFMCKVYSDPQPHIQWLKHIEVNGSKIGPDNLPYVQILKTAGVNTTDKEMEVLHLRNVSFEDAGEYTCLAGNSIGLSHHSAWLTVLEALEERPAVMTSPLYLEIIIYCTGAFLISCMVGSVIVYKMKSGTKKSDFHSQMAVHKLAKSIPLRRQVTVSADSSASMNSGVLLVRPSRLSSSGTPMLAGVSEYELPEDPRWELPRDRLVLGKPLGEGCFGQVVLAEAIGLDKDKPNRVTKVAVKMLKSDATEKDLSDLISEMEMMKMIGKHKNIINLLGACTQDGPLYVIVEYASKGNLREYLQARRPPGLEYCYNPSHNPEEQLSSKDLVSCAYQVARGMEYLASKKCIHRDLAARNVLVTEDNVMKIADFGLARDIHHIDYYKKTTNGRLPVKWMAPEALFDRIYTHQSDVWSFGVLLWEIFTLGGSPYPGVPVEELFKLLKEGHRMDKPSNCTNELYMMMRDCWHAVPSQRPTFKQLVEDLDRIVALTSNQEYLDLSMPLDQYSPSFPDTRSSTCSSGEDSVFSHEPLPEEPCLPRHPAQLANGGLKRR

Some results are limits rather than exact numbers.

Chain of FGFR1 (SEQ ID NO: 1, amino acids 458-765) (P11362 458-765): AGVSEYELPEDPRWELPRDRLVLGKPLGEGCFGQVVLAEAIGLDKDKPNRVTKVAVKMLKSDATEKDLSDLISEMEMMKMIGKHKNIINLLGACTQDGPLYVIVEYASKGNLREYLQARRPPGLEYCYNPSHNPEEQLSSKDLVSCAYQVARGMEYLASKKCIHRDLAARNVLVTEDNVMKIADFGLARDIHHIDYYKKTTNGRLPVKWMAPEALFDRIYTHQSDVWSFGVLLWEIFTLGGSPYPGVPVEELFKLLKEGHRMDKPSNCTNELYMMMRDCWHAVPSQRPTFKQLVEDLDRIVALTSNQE
Chain of dephosphorylated FGFR1 (SEQ ID NO: 1, amino acids 458 to 765) (P11362 458-765): as above
Chain of FGFR3 (SEQ ID NO: 5, amino acids 449-759) (P22607 449-759): as the sequence (P22607 449-759) above
Chain of recombinant human FGFR2 cytoplasmic domain (amino acids 403-822) (P21802 402-821): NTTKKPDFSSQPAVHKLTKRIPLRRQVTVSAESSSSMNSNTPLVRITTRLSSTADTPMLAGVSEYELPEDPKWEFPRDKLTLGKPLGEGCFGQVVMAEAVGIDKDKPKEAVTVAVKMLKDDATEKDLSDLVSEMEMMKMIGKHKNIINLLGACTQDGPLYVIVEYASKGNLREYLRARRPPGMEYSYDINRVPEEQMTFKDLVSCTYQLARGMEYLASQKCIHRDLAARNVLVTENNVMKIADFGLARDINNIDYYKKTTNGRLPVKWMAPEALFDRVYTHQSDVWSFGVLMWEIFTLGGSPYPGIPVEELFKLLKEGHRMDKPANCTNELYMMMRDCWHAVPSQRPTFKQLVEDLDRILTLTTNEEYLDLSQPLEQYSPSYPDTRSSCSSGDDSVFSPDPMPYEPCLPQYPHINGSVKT

`COc1cc(-c2ccc(N3CCN(C(=O)C4(F)CN(C(=O)/C=C/CN(C)C)C4)CC3)nc2C)cn2ncc(C#N)c12` [Example 168, (E)-6-(6-(4-(1-(4-(dimethylamino)but-2-enoyl)-3-fluoroazetidine-3-carbonyl)piperazin-1-yl)-2-methylpyridin-3-yl)-4-methoxypyrazolo [1,5-a]pyridine-3-carbonitrile]: the IC50 in test [1] turned out to be 608 nM; in test [2], 34 nM; in test [3], 50 nM; in test [6], 502 nM. Besides, the “FGFR1 Enz kobs” value in test [4] was 0.00847 min⁻¹. The “FGFR3 Enz kobs” value in test [5] stood at 0.06456 min⁻¹.

For `COc1cc(-c2cnc(N3CCN(C(=O)C4(F)CN(C(=O)/C=C/CN(C)C)C4)CC3)cc2C)cn2ncc(C#N)c12` [Example 169, (E)-6-(6-(4-(1-(4-(dimethylamino)but-2-enoyl)-3-fluoroazetidine-3-carbonyl)piperazin-1-yl) -4-methylpyridin-3-yl)-4-methoxypyrazolo [1,5-a]pyridine-3-carbonitrile], the IC50 in test [1] amounted to 788 nM; in test [2] it was 49 nM; in test [3] it was 80 nM; in test [6], 751 nM. In addition, the “FGFR1 Enz kobs” value in test [4] worked out at 0.00576 min⁻¹. The “FGFR3 Enz kobs” value in test [5] was found to be 0.08 min⁻¹.

In the case of `COc1cc(-c2cnn(C3CCN(C(=O)C4(F)CN(C(=O)/C=C/CN(C)C)C4)CC3)c2C)cn2ncc(Cl)c12` [Example 170, (E)-1-(3-(4-(4-(3-chloro-4-methoxypyrazolo [1,5-a]pyridin-6-yl)-5-methyl-1H-pyrazol-1-yl)piperidine-1-carbonyl)-3-fluoroazetidin-1-yl)-4-(dimethylamino)but-2-en-1-one], the IC50 in test [1] came out at 488 nM; in test [2] it was 5 nM; in test [3], 239 nM; in test [6], 915 nM. In test [4], the “FGFR1 Enz kobs” value turned out to be 0.00774 min⁻¹. Besides, the “FGFR3 Enz kobs” value in test [5] came out at 0.1388 min⁻¹.

Take `COc1cc(-c2cnn(C3CCN(C(=O)C4(OC)CN(C(=O)/C=C/CN(C)C)C4)CC3)c2C)cn2ncc(Cl)c12` [Example 171, (E)-1-(3-(4-(4-(3-chloro-4-methoxypyrazolo [1,5-a]pyridin-6-yl)-5-methyl-1H-pyrazol-1-yl)piperidine-1-carbonyl)-3-methoxyazetidin-1-yl)-4-(dimethylamino)but-2-en-1-one]: the IC50 in test [1] is 336 nM; in test [2], 5 nM; in test [3] it was 19 nM; in test [6] it was 888 nM. The “FGFR1 Enz kobs” value in test [4] was found to be 0.00471 min⁻¹. The “FGFR3 Enz kobs” value in test [5] was 0.0804 min⁻¹.

For the compound `C=CC(=O)N1CC(O)(C(=O)N2CCC(n3ncc(-c4cc(OC)c5c(Cl)cnn5c4)c3C)CC2)C1` [Example 172, 1-(3-(4-(4-(3-chloro-4-methoxypyrazolo [1,5-a]pyridin-6-yl)-5-methyl-1H-pyrazol-1-yl)piperidine-1-carbonyl)-3-hydroxyazetidin-1-yl)prop-2-en-1-one], the IC50 in test [1] was found to be 922 nM; in test [2] it was 25 nM; in test [3], 454 nM; in test [6] it was 3290 nM. In test [4], the “FGFR1 Enz kobs” value turned out to be 0.00191 min⁻¹. In addition, in test [5], the “FGFR3 Enz kobs” value came to 0.02599 min⁻¹.

`COc1cc(-c2cnn(C3CCN(CC4(OC)CN(C(=O)/C=C/CN(C)C)C4)CC3)c2C)cn2ncc(Cl)c12` [Example 173, (E)-1-(3-((4-(4-(3-chloro-4-methoxypyrazolo [1,5-a]pyridin-6-yl)-5-methyl-1H-pyrazol-1-yl)piperidin-1-yl)methyl)-3-methoxyazetidin-1-yl)-4-(dimethylamino)but-2-en-1-one]: the IC50 turned out to be 359 nM in test [1], 7 nM in test [2], 28 nM in test [3] and 1280 nM in test [6]. Moreover, the “FGFR1 Enz kobs” value in test [4] came to 0.00434 min⁻¹. Further, in test [5], the “FGFR3 Enz kobs” value came out at 0.06559 min⁻¹.

As for `COc1cc(-c2cnn(C3CCN(C(=O)C4CN(C(=O)C#CCO)C4)CC3)c2)cn2ncc(C#N)c12` [Example 179, 6-(1-(1-(1-(4-hydroxybut-2-ynoyl)azetidine-3-carbonyl)piperidin-4-yl)-1H-pyrazol-4-yl)-4-methoxypyrazolo[1,5-a]pyridine-3-carbonitrile], the IC50 turned out to be 22 nM in test [1], 1 nM in test [2], 3 nM in test [3] and 1600 nM in test [6]. Further, the “FGFR1 Enz kobs” value in test [4] came out at 0.01248 min⁻¹. Further, the “FGFR3 Enz kobs” value in test [5] worked out at 0.189 min⁻¹.

Turning to `COc1cc(-c2cnn(C3CCN(C(=O)C4CN(C(=O)/C=C/CCl)C4)CC3)c2)cn2ncc(C#N)c12` [Example 181, (E)-6-(1-(1-(1-(4-chlorobut-2-enoyl)azetidine-3-carbonyl)piperidin-4-yl)-1H-pyrazol-4-yl)-4-methoxypyrazolo[1,5-a]pyridine-3-carbonitrile], the IC50 in test [1] is 32 nM; in test [2], 3 nM; in test [3], 2 nM; in test [6], 196 nM. The “FGFR1 Enz kobs” value in test [4] amounted to 0.00249 min⁻¹. For the same compound, the “FGFR3 Enz kobs” value in test [5] is 0.02709 min⁻¹.

As to `COc1cc(-c2cnn(C3CCN(C(=O)C4CN(C(=O)/C=C/CN5CC[C@H](F)C5)C4)CC3)c2)cn2ncc(C#N)c12` [Example 182, (S,E)-6-(1-(1-(1-(4-(3-fluoropyrrolidin-1-yl)but-2-enoyl)azetidine-3-carbonyl)piperidin-4-yl)-1H-pyrazol-4-yl)-4-methoxypyrazolo[1,5-a]pyridine-3-carbonitrile], the IC50 came out at 40 nM in test [1], 2 nM in test [2], 3 nM in test [3] and 3630 nM in test [6]. Moreover, the “FGFR1 Enz kobs” value in test [4] turned out to be 0.00202 min⁻¹. In addition, the “FGFR3 Enz kobs” value in test [5] stood at 0.01781 min⁻¹.

In the case of `COc1cc(-c2cnn(C3CCN(C(=O)C4CN(C(=O)/C=C/CN5CC[C@@H](F)C5)C4)CC3)c2)cn2ncc(C#N)c12` [Example 183, (R,E)-6-(1-(1-(1-(4-(3-fluoropyrrolidin-1-yl)but-2-enoyl)azetidine-3-carbonyl)piperidin-4-yl)-1H-pyrazol-4-yl)-4-methoxypyrazolo[1,5-a]pyridine-3-carbonitrile], the IC50 came out at 46 nM in test [1], 4 nM in test [2], 4 nM in test [3] and 4570 nM in test [6]. In addition, the “FGFR1 Enz kobs” value in test [4] is 0.00259 min⁻¹. Moreover, in test [5], the “FGFR3 Enz kobs” value worked out at 0.02414 min⁻¹.

On to `COc1cc(-c2cnn(C3CCN(C(=O)C4CN(C(=O)/C=C/CN5CCOCC5)C4)CC3)c2)cn2ncc(C#N)c12` [Example 184, (E)-4-methoxy-6-(1-(1-(1-(4-morpholinobut-2-enoyl)azetidine-3-carbonyl)piperidin-4-yl)-1H-pyrazol-4-yl)pyrazolo[1,5-a]pyridine-3-carbonitrile], for which the IC50 in test [1] was 52 nM; in test [2], 6 nM; in test [3], 4 nM; in test [6], ≥ 5000 nM. For the same compound, the “FGFR1 Enz kobs” value in test [4] was 0.00043 min⁻¹. The “FGFR3 Enz kobs” value in test [5] worked out at 0.00475 min⁻¹.

Consider `C=CS(=O)(=O)N1CCC(C(=O)N2CCC(n3cc(-c4cc(OC)c5c(C#N)cnn5c4)cn3)CC2)CC1` [Example 186, 4-methoxy-6-(1-(1-(1-(vinylsulfonyl)piperi-dine-4-carbonyl)piperidin-4-yl)-1H-pyrazol-4-yl)pyrazolo[1,5-a]pyridine-3-carbonitrile], for which the IC50 amounted to 14 nM in test [1], 2 nM in test [2], 8 nM in test [3] and 35 nM in test [6]. Further, in test [4], the “FGFR1 Enz kobs” value was 0.01483 min⁻¹. In addition, the “FGFR3 Enz kobs” value in test [5] was found to be 0.08793 min⁻¹.

As usually defined, the IC50 is the midpoint of a concentration-inhibition curve.
